Columns and labels:
Hepatitis C virus = test: Antiviral activity against HCV genotype 1b infected in Rluc cells by 384 well-format assay; type: functional, organism-based, Hepacivirus hominis
[1] = Inhibition of HCV genotype 1b NS3/4A protease; parameters: species or system Hepatitis C virus subtype 1b

SMILES	EC50 (Hepatitis C virus)	IC50 [1]
COc1ccc2c(O[C@@H]3C[C@H]4C(=O)N[C@]5(C(=O)NS(=O)(=O)C6CC6)C[C@H]5/C=C\CCCCCS(=O)(=O)N4C3)cc(-c3nc(C(C)C)cs3)nc2c1C	79 nM	2.9 nM
COc1ccc2c(O[C@@H]3C[C@H]4C(=O)N[C@]5(C(=O)NS(=O)(=O)C6CC6)C[C@H]5/C=C\CCCCCCC(=O)N4C3)cc(-c3nc(C(C)C)cs3)nc2c1C	5.8 nM	0.3 nM
COc1ccc2c(O[C@@H]3C[C@H]4C(=O)N[C@]5(C(=O)NS(=O)(=O)C6CC6)C[C@H]5/C=C\CCCCCC(=O)N4C3)cc(-c3nc(C(C)C)cs3)nc2c1C	4 nM	0.4 nM
COc1ccc2c(O[C@@H]3C[C@H]4C(=O)N[C@]5(C(=O)O)C[C@H]5/C=C\CCCCCCS(=O)(=O)N4C3)cc(-c3nc(C(C)C)cs3)nc2c1C	> 2000 nM	712 nM
COc1ccc2c(O[C@@H]3C[C@H]4C(=O)N[C@]5(C(=O)NS(=O)(=O)C6CC6)C[C@H]5/C=C\CCCCCCS(=O)(=O)N4C3)cc(-c3nc(C(C)C)cs3)nc2c1C	440 nM	13 nM
COc1ccc2c(O[C@@H]3C[C@H]4C(=O)N[C@]5(C(=O)O)C[C@H]5/C=C\CCCCCS(=O)(=O)N4C3)cc(-c3nc(C(C)C)cs3)nc2c1C	> 2000 nM	747 nM
COc1ccc2c(O[C@@H]3C[C@H]4C(=O)N[C@]5(C(=O)NS(=O)(=O)C6CC6)C[C@H]5CCCCCCCCS(=O)(=O)N4C3)cc(-c3nc(C(C)C)cs3)nc2c1C	257 nM	7.4 nM

More lines, now with the values ahead:

EC50 (Hepatitis C virus)	IC50 [1]	SMILES
> 2000 nM	639 nM	C=C[C@@H]1C[C@]1(NC(=O)[C@@H]1C[C@@H](Oc2cc(-c3nc(C(C)C)cs3)nc3c(C)c(OC)ccc23)[C@H]2CCCS(=O)(=O)N21)C(=O)NS(=O)(=O)C1CC1
89 nM	4.7 nM	COc1ccc2c(O[C@@H]3C[C@H]4C(=O)N[C@]5(C(=O)NS(=O)(=O)C6CC6)C[C@H]5CCCCCCCS(=O)(=O)N4C3)cc(-c3nc(C(C)C)cs3)nc2c1C
> 2000 nM	47 nM	C=C[C@@H]1C[C@]1(NC(=O)[C@@H]1C[C@@H](Oc2cc(-c3nc(C(C)C)cs3)nc3c(C)c(OC)ccc23)[C@H]2CCCC(=O)N21)C(=O)NS(=O)(=O)C1CC1

From ChEMBL document CHEMBL3112464, “Novel, sulfonamide linked inhibitors of the hepatitis C virus NS3 protease” (Bioorg Med Chem Lett, 2014)
